From patent US20250177473A1, “PEPTIDE REGULATORS OF METABOLISM” (Metabico, Inc., priority 2022, published 2025)

Legend:
[1] = test system: C57BL/6 mice on a high-fat diet; assay: Glucose tolerance test in mice on high-fat diet (HFD), acute administration; assay type: in vivo, mouse; settings: Metformin 250 mg/kg single p.o.
Protocol: A standard laboratory rodent pellet SNIFF RI/M-H V1534-30 (58% carbohydrates, 9% fat, 33% protein, 306 kcal/100 g) was given ad libitum to the control animals. For HFD groups, the high-fat feed was used. For 1 kg of feed, 610 g of ground SNIFF feed and 360 g of melted pork lard were taken, water (˜250 ml, 60-70° C.), 10 g of sodium chloride, 30 g of sodium glutamate were added. The mixture was brewed to a dough consistency, and food granules were formed. Then the granules were dried at 60-70° C. for 10-12 hours. The finished food for consumption was transferred to the animal-keeping area. The prepared food was stored at 4° C. for no more than 7 days. The approximate energy value of the HFD feed was 516 kcal/100 g (45% fat, 35% carbohydrates, 20% protein).
The metabolic syndrome was modeled by keeping animals on a HFD for 16 weeks. The control group was kept on a standard diet (STD) during this period. Animals had free access to feed and water located in the cage lid.
At stage 1 of the study, to replicate the metabolic syndrome, 25 mice were kept on a STD (group 1), 140 mice—on a HFD (groups 2-5). The animals' body weight was monitored weekly. By the end of the 16th week, mice with the maximum gain were selected among the animals kept on a HFD, and four groups of 25 animals were formed.
On the day of the experiment, animals from groups 3-5 were injected with the tested substances: one half of the group (12 or 13 animals) 2 hours before the experiment and the other half—12 hours. Group 1 and 2 (STD control and HFD control) were injected with saline (Table 5).
The administration volume was 10 ml/kg for drugs administered i.p., 6 μl/animal for i.n. administration and 5 ml/kg for drugs administered p.o.
The animals were deprived of food for 12 hours before the glucose tolerance test and euthanasia. Animals had free access to water.
The animals were deprived of food for 12 hours before the test. Baseline glucose level was measured at the end of fasting (0 min time point) in the blood drop taken from the tip of the tail by incision (with a needle) of the tail vein. The test substances were administered according to the treatment group. Half of the animals received drug injections 2 hours, and the other half—12 hours before the test. The glucose concentration in the blood was determined 15, 30, 60, 120 minutes after i.p. 40% glucose solution administration in a dose of […] with Satellite Express (Elta, Russia) test system.

[2] = test system: C57BL/6 mice on a high-fat diet; assay: Tolerability observations in HFD mice study; assay type: in vivo, mouse; settings: metformin 250 mg/kg p.o.
Protocol: (§1) Groups of 10 animals were formed from the existing groups from Stage 2, with similar mean body weight (Table 6). The animals' bodyweight was monitored three times a week, water, and feed consumption—weekly. After the last treatment, the animals were euthanized for necropsy and their blood collected. The internal organs were examined for the presence of macro damage and weighed. The adipose tissue surrounding the epididymis was evaluated as a marker of obesity in animals. For histological examination, samples of adipose tissue and liver tissue were fixed in 10% formalin solution for further histological analysis.
During necropsy, the body's external state, internal surfaces, the cranial cavity, chest, abdominal and pelvic cavities with organs and tissues located in them, the neck with organs and tissues, the skeleton, and the musculoskeletal system were examined. The organs and tissues were fixed in 10% formalin. Liver and adipose tissue samples were weighed and stored in 10% formalin for subsequent histological analysis.

[3] = test system: C57BL/6 mice on a high-fat diet; assay: Blood serum glucose, HOMA-IR and TNF-α after chronic administration in HFD mice; assay type: in vivo, mouse; settings: metformin 250 mg/kg p.o.
Protocol: as §1
At the end of the study, the animals were euthanized. […]
Blood serum was analyzed for glucose concentration using the Randox GB reagent kit on an automatic biochemical analyzer Sapphire-400 (Tokyo Boeki LTD, Japan), following the manufacturer's instructions.
Insulin concentration in blood serum samples was measured by enzyme immunoassay using a standard commercial kit, following the manufacturer's instructions. […] Based on the obtained data on the concentration of insulin and glucose measured in animals before necropsy, the derived parameter of insulin resistance HOMA-IR was calculated using the formula: […]
The concentration of proinflammatory cytokine TNFa and IL1 was measured in blood serum samples by ELISA using standard commercial kits, following the manufacturer's instructions. […]

IL-6 = IL-6 mRNA expression in LPS-induced primary mouse fibroblasts; assay type: cell-based; settings: LPS 0.5 μg/mL 24 h; DLSKEPSISRE 0.05 mg/mL or metformin 1 mM
Protocol: The study was carried out in primary mouse fibroblasts. Isolation of fibroblasts was carried out with techniques described earlier (See Example 1). Fibroblasts were cultured for 3 days. The following stressors were applied separately: bacterial lipopolysaccharides (LPS), high glucose in the incubation medium, and serum-free incubation medium.
LPS is a major outer surface membrane component that induces an inflammatory response in cells.
Isolation of mRNA, synthesis of the first strand of cDNA, and RT-PCR were performed with techniques described earlier (See Example 1). Expression levels of IRS2, TNF-α, IL-6, and GSK3p (WNT-pathway) were analyzed.
The study was carried out in primary mouse fibroblasts. Isolation of fibroblasts was carried out with techniques described earlier (See Example 1). Incubation of fibroblasts with 100 μM individual peptides and 0.5 μg/mL LPS was carried out for 24 hours. Each treatment group was represented in two biological replicates.
Isolation of mRNA, synthesis of the first strand of cDNA, and RT-PCR were performed with techniques described earlier (See Example 1). Expression levels of RPL27, TNF-α, IL-6, and IRS2 genes were analyzed.

SMILES: CN(C)C(=N)N=C(N)N [Metformin]
- AUC of glucose in GTT ([1]; 2 h post-treatment): 1808 ± 131 mmol/L/min
- glucose concentration in GTT ([1]; 2 h post-treatment, 0 min (basal)): 7.2 ± 0.374 mmol/L
- glucose concentration in GTT ([1]; 2 h post-treatment, 60 min after glucose): 15.55 ± 1.46 mmol/L
- glucose concentration in GTT ([1]; 2 h post-treatment, 120 min after glucose): 10.08 ± 0.875 mmol/L
- AUC of glucose in GTT ([1]; 12 h post-treatment): 1857 ± 149 mmol/L/min
- glucose concentration in GTT ([1]; 12 h post-treatment, 0 min): 7.0 ± 0.7 mmol/L
- glucose concentration in GTT ([1]; 12 h post-treatment, 60 min after glucose): 15.7 ± 1.8 mmol/L
- glucose concentration in GTT ([1]; 12 h post-treatment, 120 min after glucose): 11.2 ± 1.4 mmol/L
- death of animals after administration [2]: 2 animals
- deviations in the state of health observed after the first injection [2]: hunching, tremor, weight loss
- glucose concentration in the blood vs HFD control group ([3]; 4 weeks, EPSI 5 mg/kg i.p. and i.n.): decrease
- TNF-α concentration in blood serum vs HFD control ([3]; four weeks, EPSI 5 mg/kg i.n.): reduced
- LPS-induced expression of IL-6 (IL-6): similarly
